Experimental data: patent US9808434B2, “Compound for treating cancer and diabetes” (CITY OF HOPE, priority 2011, dated 2017)

Assays:
A2058 p^0 cells = test: Oxygen consumption rate in mitochondrial DNA-depleted cells; type: cell-based, human; conditions: compared with wild-type A2058; data not shown
Experimental: (§1) Oxygen consumption rate (OCR), a measure of OxPhos, and extracellular acidification rate (ECAR), a measure of lactate production by glycolysis, were measured using a Seahorse Xf^e96 Flux Analyzers (Seahorse Biosciences, North Billerica, Mass.). Cells were seeded in DMEM media in Seahorse 96-well tissue culture plates at a density of 5×10^3 cells/well and allowed to adhere for 24 h. Prior to the assay, the media was changed to unbuffered DMEM containing 25 mM glucose, 1 mM pyruvate and 1 mM glutamine, with 0.2% fatty acid/endotoxin-free BSA (w/v) (pH 7.4) and the cells were equilibrated for 30 min at 37° C. Test compounds were injected during the assay and OCR and ECAR were measured using 2-3 min measurement periods. Similar sets of experiments were performed in the presence of the mitochondria recoupler agent 6-KCH or the mitochondrial permeability transition (MPT) pore blocker CSA, where each compound was injected into the assay media prior to COH-SR4 or FCCP injection. […] OCR was measured throughout the different injections of the stressors and test compounds (indicated by arrows in the figures).
To verify that COH-SR4 acts directly on mitochondrial respiration, OCR in mitochondrial DNA-depleted (p^0) A2058 cells was measured, as well as freshly isolated mouse liver mitochondria and treated with either COH-SR4 or FCCP.

[1] = test system: human melanoma cells (SK-MEL28, A2058, A101D); test: Oxygen consumption rate in melanoma cells, Seahorse; type: cell-based; conditions: 1-10 μM, monitored 2 h
Experimental: as §1, with “periods.” for “periods. Similar sets of experiments were performed in the presence of the mitochondria recoupler agent 6-KCH or the mitochondrial permeability transition (MPT) pore blocker CSA, where each compound was injected into the assay media prior to COH-SR4 or FCCP injection.”
The importance of mitochondria as oxygen sensors as well as producers of ATP and ROS has recently become a focal point of cancer research. […] OCR was continuously monitored for 2 h. Mitochondria recoupler 6-KCH (200 μM) was added to the assay system prior to injection of COH-SR4 (5 μM) as shown by arrows and OCR of A101D cells were monitored (FIG. 37B). […]

[2] = test system: isolated mouse liver mitochondria; test: Oxygen consumption rate in isolated liver mitochondria; conditions: increasing concentrations
Experimental: Mitochondria were isolated from the livers of 10 week old male C57BL/6 mice. Mice were euthanized by CO2 inhalation followed by cervical dislocation. Livers were removed, minced with scissors, and immediately placed in ˜10 volumes of ice-cold mitochondria isolation medium (250 mM sucrose, 10 mM Tris-HCl, 1 mM EGTA, 1% fatty acid/endotoxin-free BSA, pH 7.4). The presence of BSA in the medium allowed the endogenous free fatty acids to be chelated from the homogenate suspension. The tissues were homogenized using 25-30 strokes in Potter-Elvehjem tissue grinder. Following centrifugation at 800×g for 10 min at 4° C., the fats/lipids were carefully aspirated, and the remaining supernatant was filtered through sterile 0.40 micron nylon mesh membrane and centrifuged at 8,000×g for 10 min at 4° C. […] The mitochondrial protein concentration was determined by the DC Protein Assay kit (Bio-Rad, Hercules, Calif.) with BSA as a standard. […]
Isolated mouse liver mitochondria (2 μg/well or 5 μg/well) were seeded on Seahorse 96-well plate, and respiration (OCR) was measured on mitochondria respiring either on pyruvate (10 mM) and malate (2 mM) or succinate (10 mM) and rotenone (2 μM) using a Seahorse 96 Flux Analyzers according to Rogers et al (90).

[3] = test system: HepG2 liver carcinoma cells; test: Intracellular AMP:ATP ratio in HepG2; type: cell-based, human; conditions: 5 μM, 1 h
Experimental: ATP production from cells treated with test compounds were measured using the Luminescent ATP Detection Assay Kit. AMP, ATP and ADP were measured by UV-HPLC.
Total intracellular ATP production in cells treated with either 5 μM COH-SR4 or 5 μM FCCP was measured by bioluminescence assay and expressed as percentage of time-matched vehicle (DMSO) control (FIG. 84A). Intracellular AMP: ATP ratios increased in HepG2 liver carcinoma cells following 1 h treatment with either 5 μM COH-SR4 or 5 μM FCCP (FIG. 84B) and in liver of db/db mice treated with COH-SR4 (5 mg/kg B.W.) for 5 weeks (FIG. 84C). All data represented are mean±SEM, *P<0.05.

A2058 cells = test: Mitochondrial membrane depolarization, TMRE; type: cell-based, human; conditions: 5 μM
Experimental: Cells (4×10^5/well in 6-well plates) cultured overnight were pre-incubated with the fluorescent indicator of MMP tetramethylrhodamine ester (TMRE, 200 nM) or DMSO control for 30 min at 37° C. in CO2 incubator. Cells were washed with pre-warmed normal DMEM media, and test compounds were added with fresh media for the indicated times. Cells were then trypsinized, collected, centrifuged for 5 min at 800×g, and washed once in pre-warmed PBS-0.2% BSA. Cells were then resuspended in the same buffer prior to flow cytometric analysis. A total of 30,000 cells were counted per sample and data was analyzed by Cyan ADP flow cytometer with excitation/emission of 488 nm/572 nm (Beckman Coulter, Inc., Brea, Calif.). For measurements of membrane potential in isolated mouse liver mitochondria, the organelles were pre-incubated with 200 nM TMRE in MASSRO buffer (MAS buffer supplemented with 10 mM succinate, 1 μM rotenone, and 1 μM oligomycin) for 20 min at 25° C. The mitochondria were centrifuged for 5 min at 3000×g and resuspended in MASSRO buffer. Mitochondria were then added to MASSRO buffer containing the indicated concentrations of COH-SR4, FCCP or DMSO vehicle control and incubated at room temperature for 15 min. […] TMRE fluorescence was measured with a microplate reader (Tecan Infinite M200 Pro, Tecan Group Ltd., Switzerland) using an excitation emission of 545ex/580em. […]

[4] = test system: isolated mouse liver mitochondria; test: Mitochondrial swelling assay; conditions: potassium acetate buffer with valinomycin
Experimental: Mitochondrial swelling was measured in non-respiring mouse liver mitochondria incubated in buffered isotonic potassium acetate in the presence of valinomycin (24,25). […] Absorbance of the mitochondrial suspension before and after addition test compounds was measured every 10 seconds using a Varian Cary 300 spectrophotometer (Agilent Technologies, Santa Clara, Calif.). Swelling was recorded from the decrease in absorbance at 600 nm and expressed as percentage from initial reading after addition of mitochondria.
Mitochondrial membrane swelling was detected as decrease in absorbance at 600 nm following the addition of COH-SR4 or FCCP alone or in the presence of cysclosporin A (CSA, 1 μM) on isolated mouse liver mitochondria respiring on succinate (10 mM) in the presence of rotenone (1 μM) and valinomycin (5 μM) in potassium acetate buffer. […] Arrow indicates time of addition of test compounds into the mitochondria suspension.

PBT-017 = test: Glioma ATP viability assay, PBT-017; type: cell-based; conditions: 72 h, Table 2
Experimental: (§2) Cells of each cell line (U251, U87, PBT-017, PBT018, PBT003 and PBT028) were treated with various concentrations (0˜100 μM) of COH-SR4 for 72 hours. Cell viabilities were determined by ATP viability assays. Data were represented as a ratio to vehicle (DMSO) control, and plotted as mean±SEM (n=12) obtained from 2˜3 experiments (FIG. 34A).
as §2, with “(U87, U251,” for “(U251, U87, PBT-017, PBT018,”, “PVT-017)” for “PBT028)”, “2-3” for “2˜3”, “34B).” for “34A).”
(§3) Cells of each cell line were treated with various concentrations (0˜100 μM) of COH-SR4 or various concentrations (0˜1000 μM) of TMZ for 72 hours. Cell viabilities were determined by ATP viability assays. Data were represented as a ratio to untreated cells as control, and plotted as mean±SEM (n=12) obtained from 2˜3 experiments (FIGS. 43A-B).

U251 = test: Glioma ATP viability assay, U251; type: cell-based; conditions: Homo sapiens, U-251, 72 h, Table 2
Experimental: as §2
as §2, with “(U87, U251,” for “(U251, U87, PBT-017, PBT018,”, “PVT-017)” for “PBT028)”, “2-3” for “2˜3”, “34B).” for “34A).”
as §3

melanoma cells [5] = test: MTT assay, melanoma cell lines of various mutational status; type: cell-based; conditions: 48 h, regardless of mutational status; read-out: IC50 values across melanoma cell lines
Experimental: Cell density measurements were performed using a hemocytometer to count reproductive cells resistant to staining with trypan blue. Approximately 20,000 cells were plated into each well of 96-well flat-bottomed micro-titer plates. After 12 h or 24 h incubation at 37° C., medium containing either COH-SR4 (ranging 0-200 μM) or elesclomol (ranging 0-20 μM) were added to the cells. After 24 h, 48 h or 96 h incubation, 20 μL of 5 mg/mL MTT were introduced to each well and incubated for 2 h. The plates were centrifuged and medium was decanted. Cells were subsequently dissolved in 100 μl DMSO with gentle shaking for 2 h at room temperature, followed by measurement of OD570 (91).

melanoma cells [6] = test: Colony formation assay, melanoma cells (elesclomol); type: cell-based, human; conditions: 5 μM, compared to COH-SR4
Experimental: Cell survival was evaluated using a standard colony-forming assay. In total, 1×10^5 cells/mL were incubated with COH-SR4 (1.5 μM or 5 μM) or elesclomol (5 μM) for 24 h, and aliquots of 50 or 100 μL were added to 60 mm size petri dishes, containing 4 mL culture medium. After 7 or 10 days, adherent colonies were fixed, stained with 0.5% methylene blue for 30 min and colonies were counted using the Innotech Alpha Imager HP (91).

[7] = test system: B16-F0 and A2058 melanoma cells; test: TUNEL apoptosis assay, melanoma; type: cell-based; conditions: 5 μM, 24 h
Experimental: For TUNEL assay, 1×10^5 cells were grown on the cover slips for ˜12 h followed by treatment with COH-SR4 (5 μM or 10 μM) or elesclomol (5 μM) for 24 h. Apoptosis was determined by the labeling of DNA fragments with terminal deoxynucleotidyl-transferase dUTP nick-end labeling (TUNEL) assay using Promega fluorescence apoptosis detection system, and examined using Zeiss LSM 510 META laser scanning fluorescence microscope with filters 520 and 620 nm according to the protocol described previously (91). Photographs taken at identical exposure at ×400 magnification are presented.

GSTP = biological target: T1, GSTP (Homo sapiens, UniProt P09211); test: GSTP activity towards CDNB in the presence of GSR4; type: biochemical; conditions: 93977 at 0 μM
T1 construct: made in house; host or cells: E. coli BL21 (DE3)
T1 sequence (P09211 whole entry): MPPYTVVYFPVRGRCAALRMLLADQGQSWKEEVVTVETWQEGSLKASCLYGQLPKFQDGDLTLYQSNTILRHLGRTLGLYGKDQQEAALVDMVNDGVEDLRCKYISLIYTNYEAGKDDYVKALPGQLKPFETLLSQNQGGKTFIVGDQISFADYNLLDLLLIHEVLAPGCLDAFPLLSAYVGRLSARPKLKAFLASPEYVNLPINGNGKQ
Experimental: Furthermore, GSTP activities towards CDNB were assessed in the presence of various concentration of GSR4. The GSTP activities decreased when the concentration of GSR4 increased (Table 3). Thus, […] was a product inhibitor of GSTP with an estimated Ki of less than 5 μM.

N#CC(C#N)=NNc1ccc(OC(F)(F)F)cc1 [FCCP, reference compound]
OCR in mitochondrial DNA-depleted cells (A2058 p^0 cells): failed to increase OCR | oxygen consumption rate (OCR) [1]: caused an abrupt increase in OCR at the lower concentration and decreases OCR at higher (>3 μM) concentrations | OCR of mitochondria respiring on pyruvate and malate or succinate-rotenone [2]: dose-dependently increased OCR of mitochondria | intracellular AMP:ATP ratios [3]: increased | mitochondrial membrane depolarization (TMRE fluorescence) (A2058 cells): induced mitochondrial membrane depolarization in a time-dependent manner | mitochondrial swelling (absorbance at 600 nm) [4]: mitochondrial swelling was observed

Cn1nnc2c(C(N)=O)ncn2c1=O [TMZ, temozolomide, reference compound]
IC50 (PBT-017): 13 µM | IC50 (U251): 371 µM

CN(NC(=O)CC(=O)NN(C)C(=S)c1ccccc1)C(=S)c1ccccc1 [elesclomol, reference compound]
IC50 (melanoma cells [5]): ≥ 5.8 µM | colony forming ability of melanoma cells (melanoma cells [6]): did not significantly affect the colony forming ability | apoptosis (DNA fragmentation, TUNEL) [7]: not potent

mono-glutationyl-SR4 [GSR4]
GSTP activity towards CDNB (Kcat [s−1]) (GSTP; [GSR4] 5 μM): 36385 s⁻¹ | GSTP activity towards CDNB (Kcat [s−1]) (GSTP; [GSR4] 10 μM): 16115 s⁻¹
